The values below come from publication PMC10748125 (Viruses, 2023).

The subject of data set [1] is HCoV-NL63. In words: Time-of-addition assay. It counts as cell-based.
A short description of data set [2]: Cytotoxicity assay (CCK-8), NCTC clone 929. It counts as cell-based, murine. The following applies: mouse, NCTC clone 929 cells; Figure 1C MHV plot label; read-out: NCTC clone CC50 (label inside plot).
Data set [3] relates to MRC-5 cells. To be noted: human.
Data set [4] deals with HCoV-NL63. The data set can be described thus: Viral yield reduction (VYR) assay, HCoV-NL63 in Caco-2 cells. To be noted: read-out: EC50 (μM) HCoV-NL63, progeny virus 24 h post-infection, mean ± SD.
Data set [5] can be described thus: Cytotoxicity assay (CCK-8), Caco-2. In kind it is cell-based. To be noted: human, CCK-8, 48 h treatment.
The nature of data set [6]: in vitro. To be noted: human.
In data set [7] the test system is HCoV-OC43. In words: Viral yield reduction (VYR) assay, HCoV-OC43 in HCT-8 cells. The following applies: read-out: EC50 (μM) HCoV-OC43, progeny virus 24 h post-infection, mean ± SD.
Data set [8] can be described thus: Cytotoxicity assay (CCK-8), CRFK. It counts as cell-based, feline. To be noted: cat, CRFK cells; Figure 1C CCoV plot label; read-out: CRFK CC50 (label inside plot).
A short description of data set [9]: Cytotoxicity assay (CCK-8), HCT-8. In kind it is cell-based. The following applies: human, HCT-8 cells; CCK-8, 48 h treatment.
For data set [10], the system named is HCoV-229E. The data set can be described thus: Viral yield reduction (VYR) assay, HCoV-229E in MRC-5 cells. The following applies: read-out: EC50 (μM) HCoV-229E, progeny virus 24 h post-infection, mean ± SD.
Where [11] appears, read: 2 μM VV116, 2 μM Remdesivir, 300 μg/mL heparan sulfate, MOI 0.1, 24 h post-infection.

As to `CCC(CC)COC(=O)[C@H](C)N[P@](=O)(OC[C@H]1O[C@@](C#N)(c2ccc3c(N)ncnn23)[C@H](O)[C@@H]1O)Oc1ccccc1` [Remdesivir], the Time-of-addition result overall in data set [1] (2 μM Remdesivir, compared with VV116) is “comparable to that obtained for VV116”. The CC50 at 48 h in data set [2], in data set [5], in [8] and in [9] was over 100 µM each time. In addition, the CC50 in data set [3] and in data set [6] was over 100 µM each time. In addition, the EC50 in data set [4] came to 0.495 ± 0.01 µM; in data set [7], 0.069 ± 0.001 µM; in data set [10], 0.056 ± 0.002 µM.
heparan sulfate: in data set [1] (setting [11]), the “Antiviral activity when added at the post-entry phase (NP Western blot)” value is recorded as “abolished” and the “Antiviral activity when added during the entry phase (NP Western blot)” value is given as “demonstrated antiviral activity”.

One may read the EC50 as the concentration giving half of the maximal effect.
